{"source": "patent US8623902B2", "about": "“Microbiocides” (Syngenta Crop Protection, LLC, priority 2008, dated 2014)", "key": {"[1]": {"tested_on": "Puccinia recondita", "assay": "Curative action against Puccinia recondita (brown rust) on wheat", "assay_type": "in vivo", "conditions": "foliar, wheat leaf segments sprayed with 0.02% active ingredient one day after inoculation, assessed 8 days after inoculation, read-out: curative fungicidal activity (inhibition)", "experimental": "Curative Action Against Puccinia recondita (Brown Rust) on Wheat Wheat leaf segments are placed on agar in multiwell plates (24-well format) and inoculated with a spore suspension of the fungus. One day after inoculation the leaf segments are sprayed with test solutions (0.02% active ingredient). After appropriate incubation the activity of a compound is assessed 8 days after inoculation as curative fungicidal activity."}, "[2]": {"tested_on": "Leptosphaeria nodorum (Septoria nodorum)", "assay": "Action against Leptosphaeria nodorum (Septoria nodorum; glume blotch) on wheat", "assay_type": "in vivo", "conditions": "Parastagonospora nodorum, foliar, 96 h; wheat leaf segments sprayed with 0.02% active ingredient, assessed 4 days after inoculation; read-out: preventive fungicidal activity (inhibition)", "experimental": "(§1) Action Against Leptosphaeria nodorum (Septoria nodorum; Glume Blotch) on Wheat Wheat leaf segments are placed on agar in multiwell plates (24-well format) and sprayed with test solutions (0.02% active ingredient). After drying, the leaf disks are inoculated with a spore suspension of the fungus. After appropriate incubation the activity of a compound is assessed 4 days after inoculation as preventive fungicidal activity."}, "[3]": {"tested_on": "Puccinia recondita", "assay": "Protective action against Puccinia recondita (brown rust) on wheat", "assay_type": "in vivo", "conditions": "foliar, 192 h, wheat leaf segments sprayed with 0.02% active ingredient, assessed 8 days after inoculation, read-out: preventive fungicidal activity (inhibition)", "experimental": "(§2) Protective Action Against Puccinia recondita (Brown Rust) on Wheat Wheat leaf segments are placed on agar in multiwell plates (24-well format) and sprayed with test solutions (0.02% active ingredient). After drying, the leaf disks are inoculated with a spore suspension of the fungus. After appropriate incubation the activity of a compound is assessed 8 days after inoculation as preventive fungicidal activity."}, "[4]": {"tested_on": "Erysiphe graminis f.sp. tritici", "assay": "Action against Erysiphe graminis f.sp. tritici (wheat powdery mildew), wheat leaf segments", "assay_type": "in vivo", "conditions": "Blumeria graminis, foliar, 168 h; wheat leaf segments sprayed with 0.02% active ingredient, assessed 7 days after inoculation; read-out: preventive fungicidal activity (inhibition)", "experimental": "as §2, with “Action” for “Protective Action”, “Erysiphe graminis f.sp. tritici (Wheat Powdery Mildew)” for “Puccinia recondita (Brown Rust) on Wheat”, “7” for “8”"}, "[5]": {"tested_on": "Septoria tritici", "assay": "Action against Septoria tritici - fungal growth assay", "assay_type": "cell-based", "conditions": "Zymoseptoria tritici; 0.002% active ingredient, PDB broth, 24° C., photometric after 72 hrs", "experimental": "(§3) Action Against Septoria tritici—Fungal Growth Assay Conidia of the fungus from cryogenic storage are directly mixed into nutrient broth (PDB potato dextrose broth). After placing a (DMSO) solution of the test compounds (0.002% active ingredient) into a microtiter plate (96-well format) the nutrient broth containing the fungal spores is added. The test plates are incubated at 24° C. and the inhibition of growth is determined photometrically after 72 hrs. The activity of a compound is expressed as fungal growth inhibition (0=no growth inhibition, ratings of 80% to 99% mean good to very good inhibition, 100%=complete inhibition)."}, "[6]": {"tested_on": "Mycosphaerella arachidis (early leaf spot of groundnut; Cercospora arachidicola [anamorph])", "assay": "Action against Mycosphaerella arachidis - fungal growth assay", "assay_type": "cell-based", "conditions": "0.002% active ingredient, PDB broth, 24° C., photometric after 6-7 days", "experimental": "as §3, with “Mycosphaerella arachidis (Early Leaf Spot of Groundnut; Cercospora arachidicola [anamorph])—Fungal” for “Septoria tritici—Fungal”, “measured” for “determined”, “6-7 days.” for “72 hrs.”"}, "[7]": {"tested_on": "Rhizoctonia solani", "assay": "Action against Rhizoctonia solani - fungal growth assay", "assay_type": "cell-based", "conditions": "0.002% active ingredient, PDB broth, 24° C., photometric after 3-4 days", "experimental": "as §3, with “Rhizoctonia solani—Fungal” for “Septoria tritici—Fungal”, “Mycelial fragments of a newly grown liquid culture” for “Conidia”, “fungus” for “fungus from cryogenic storage”, “measured” for “determined”, “3-4 days.” for “72 hrs.”"}, "[8]": {"tested_on": "Pyrenophora teres", "assay": "Action against Pyrenophora teres (net blotch) on barley", "assay_type": "in vivo", "conditions": "foliar, 96 h, barley leaf segments sprayed with 0.02% active ingredient, assessed 4 days after inoculation, read-out: preventive fungicidal activity (inhibition)", "experimental": "as §1, with “Pyrenophora teres (Net” for “Leptosphaeria nodorum (Septoria nodorum; Glume”, “Barley Barley” for “Wheat Wheat”"}, "[9]": {"tested_on": "Monographella nivalis (anamorph: Fusarium nivale, Microdochium nivale; snow mould)", "assay": "Action against Monographella nivalis - fungal growth assay", "assay_type": "cell-based", "conditions": "0.002% active ingredient, PDB broth, 24° C., photometric after 72 hrs", "experimental": "as §3, with “Monographella nivalis (Anamorph: Fusarium nivale, Microdochium nivale; Snow Mould)—Fungal” for “Septoria tritici—Fungal”, “DMSO-solution” for “(DMSO) solution”, “measured” for “determined”, “hrs” for “hrs. The activity of a compound is expressed as fungal growth inhibition”"}, "[10]": {"tested_on": "Botrytis cinerea", "assay": "Action against Botrytis cinerea - fungal growth assay", "assay_type": "cell-based", "conditions": "0.002% active ingredient, PDB broth, 24° C., photometric after 3-4 days", "experimental": "as §3, with “Botrytis cinerea—Fungal” for “Septoria tritici—Fungal”, “measured” for “determined”, “3-4 days.” for “72 hrs.”"}}, "data": [{"smiles": "Cn1cc(C(=O)N2CCC[C@H]2COc2c(Cl)cc(Cl)cc2Cl)c(C(F)F)n1", "note": "[Compound 1.006]", "values": [{"measurement": "inhibition at 0.02 % strength", "setting": "[1]", "value": "≥ 80", "unit": "%"}, {"measurement": "inhibition at 0.02 % strength", "setting": "[2]", "value": "≥ 50", "unit": "%"}, {"measurement": "inhibition at 0.02 % strength", "setting": "[3]", "value": "≥ 80", "unit": "%"}, {"measurement": "inhibition at 0.02 % strength", "setting": "[4]", "value": "≥ 80", "unit": "%"}, {"measurement": "inhibition at 0.002 % strength", "setting": "[5]", "value": "≥ 80", "unit": "%"}, {"measurement": "inhibition at 0.002 % strength", "setting": "[6]", "value": "≥ 80", "unit": "%"}, {"measurement": "inhibition at 0.002 % strength", "setting": "[7]", "value": "≥ 50", "unit": "%"}, {"measurement": "inhibition at 0.02 % strength", "setting": "[8]", "value": "≥ 80", "unit": "%"}, {"measurement": "inhibition at 0.002 % strength", "setting": "[9]", "value": "≥ 50", "unit": "%"}, {"measurement": "inhibition at 0.002 % strength", "setting": "[10]", "value": "≥ 80", "unit": "%"}]}, {"smiles": "CO/N=C/c1cc(Cl)c(OC[C@@H]2CCCN2C(=O)c2cn(C)nc2C(F)F)c(Cl)c1", "note": "[Compound 1.021, 3,5-dichloro-4-[(S)-1-(3-difluoromethyl-1-methyl-1H-pyrazole-4-carbonyl)-pyrrolidin-2-ylmethoxy]-benzaldehyde O-methyl-oxime]", "values": [{"measurement": "inhibition at 0.02 % strength", "setting": "[3]", "value": "≥ 80", "unit": "%"}, {"measurement": "inhibition at 0.002 % strength", "setting": "[5]", "value": "≥ 80", "unit": "%"}, {"measurement": "inhibition at 0.002 % strength", "setting": "[6]", "value": "≥ 80", "unit": "%"}, {"measurement": "inhibition at 0.002 % strength", "setting": "[7]", "value": "≥ 50", "unit": "%"}, {"measurement": "inhibition at 0.02 % strength", "setting": "[8]", "value": "≥ 80", "unit": "%"}, {"measurement": "inhibition at 0.002 % strength", "setting": "[10]", "value": "≥ 80", "unit": "%"}]}, {"smiles": "Cc1cccc(C)c1OC[C@@H]1CCCN1C(=O)c1cn(C)nc1C(F)F", "note": "[Compound 1.068]", "values": [{"measurement": "inhibition at 0.02 % strength", "setting": "[1]", "value": "≥ 80", "unit": "%"}, {"measurement": "inhibition at 0.02 % strength", "setting": "[2]", "value": "≥ 50", "unit": "%"}, {"measurement": "melting point", "value": "137 to 140", "unit": "°C"}, {"measurement": "inhibition at 0.02 % strength", "setting": "[3]", "value": "≥ 80", "unit": "%"}, {"measurement": "inhibition at 0.02 % strength", "setting": "[4]", "value": "≥ 80", "unit": "%"}, {"measurement": "inhibition at 0.002 % strength", "setting": "[5]", "value": "≥ 80", "unit": "%"}, {"measurement": "inhibition at 0.002 % strength", "setting": "[6]", "value": "≥ 80", "unit": "%"}, {"measurement": "inhibition at 0.002 % strength", "setting": "[7]", "value": "≥ 50", "unit": "%"}, {"measurement": "inhibition at 0.02 % strength", "setting": "[8]", "value": "≥ 80", "unit": "%"}, {"measurement": "inhibition at 0.002 % strength", "setting": "[10]", "value": "≥ 80", "unit": "%"}]}, {"smiles": "Cn1cc(C(=O)N2CCCC2Cc2c(Cl)cccc2Cl)c(C(F)F)n1", "note": "(centres unmarked) [Compound 1.110, [2-(2,6-dichloro-benzyl)-pyrrolidin-1-yl]-(3-difluoromethyl-1-methyl-1H-pyrazol-4-yl)-methanone]", "values": [{"measurement": "inhibition at 0.02 % strength", "setting": "[4]", "value": "≥ 50", "unit": "%"}, {"measurement": "inhibition at 0.002 % strength", "setting": "[5]", "value": "≥ 80", "unit": "%"}, {"measurement": "inhibition at 0.002 % strength", "setting": "[6]", "value": "≥ 80", "unit": "%"}, {"measurement": "inhibition at 0.02 % strength", "setting": "[8]", "value": "≥ 80", "unit": "%"}]}, {"smiles": "Cn1cc(C(=O)N2CCC[C@H]2C(F)c2ccc(Cl)cc2)c(C(F)F)n1", "note": "(stereo partly drawn) [Compound 1.215, {(S)-2-[(4-chlorophenyl)-fluoro-methyl]-pyrrolidin-1-yl}-(3-difluoromethyl-1-methyl-1H-pyrazol-4-yl)-methanone]", "values": [{"measurement": "inhibition at 0.02 % strength", "setting": "[2]", "value": "≥ 50", "unit": "%"}, {"measurement": "inhibition at 0.002 % strength", "setting": "[5]", "value": "≥ 80", "unit": "%"}, {"measurement": "inhibition at 0.002 % strength", "setting": "[6]", "value": "≥ 80", "unit": "%"}, {"measurement": "inhibition at 0.02 % strength", "setting": "[8]", "value": "≥ 80", "unit": "%"}]}, {"smiles": "Cn1cc(C(=O)N2CCC[C@H]2C(=O)c2ccc(Cl)cc2)c(C(F)F)n1", "note": "[Compound 1.259, (4-chloro-phenyl)-[(S)-1-(3-difluoromethyl-1-methyl-1H-pyrazole-4-carbonyl)-pyrrolidin-2-yl]-methanone]", "values": [{"measurement": "inhibition at 0.02 % strength", "setting": "[8]", "value": "≥ 50", "unit": "%"}]}]}
